From patent publication US8710043B2, “TRPM8 antagonists and their use in treatments” (Amgen Inc., priority 2011, dated 2014)

Tests used:
[1] = test system: icilin induced wet-dog shakes; experiment: Inhibition of icilin induced shaking (wet-dog shakes) in rats; assay type: in vivo; settings: Rattus norvegicus, po; dose 1 mg/kg p.o., 2 h before icilin; male Sprague Dawley rats; shakes counted for 30 min post-icilin
Protocol: Inhibition of Icilin Induced Shaking in Rats
Example compounds at doses ranging from 0.01 to 3 mg/kg (p.o, suspended in 5% Tween80/Oralplus or suspended in 2% HPMC-1% Tween-80 pH2.2 with MSA, 5 mL/kg) were administered to male Sprague Dawley rats (200-300 g, Harlan, n=6-8/treatment) 2 h before icilin to assess the ability to block the spontaneous wet-dog shake phenomena induced by icilin (i.p., suspended in 100% PEG400 at 0.5 mg/kg, 1 mL/kg or p.o., suspended in 2% HPMC-1% Tween-80 at 3 mg/kg, 2.5 mL/kg). Spontaneous wet-dog shakes were counted manually by two blinded observers or using LABORAS automation (Metris) for 30 min post-icilin.

human TRPM8 = biological target: T1, human TRPM8 (Homo sapiens, UniProt Q7Z2W7); experiment: Luminescence readout assay for measuring intracellular calcium, icilin activation; assay type: cell-based; settings: CHO cells expressing human TRPM8, aequorin luminescence, 1 μM icilin activation; read-out: hTRPM8 IC50
T1 construct: expressed in transfected cells; host or cells: Chinese hamster ovary (CHO) cells, T-REx tetracycline-inducible system, co-transfected with aequorin
T1 sequence (Q7Z2W7 whole entry): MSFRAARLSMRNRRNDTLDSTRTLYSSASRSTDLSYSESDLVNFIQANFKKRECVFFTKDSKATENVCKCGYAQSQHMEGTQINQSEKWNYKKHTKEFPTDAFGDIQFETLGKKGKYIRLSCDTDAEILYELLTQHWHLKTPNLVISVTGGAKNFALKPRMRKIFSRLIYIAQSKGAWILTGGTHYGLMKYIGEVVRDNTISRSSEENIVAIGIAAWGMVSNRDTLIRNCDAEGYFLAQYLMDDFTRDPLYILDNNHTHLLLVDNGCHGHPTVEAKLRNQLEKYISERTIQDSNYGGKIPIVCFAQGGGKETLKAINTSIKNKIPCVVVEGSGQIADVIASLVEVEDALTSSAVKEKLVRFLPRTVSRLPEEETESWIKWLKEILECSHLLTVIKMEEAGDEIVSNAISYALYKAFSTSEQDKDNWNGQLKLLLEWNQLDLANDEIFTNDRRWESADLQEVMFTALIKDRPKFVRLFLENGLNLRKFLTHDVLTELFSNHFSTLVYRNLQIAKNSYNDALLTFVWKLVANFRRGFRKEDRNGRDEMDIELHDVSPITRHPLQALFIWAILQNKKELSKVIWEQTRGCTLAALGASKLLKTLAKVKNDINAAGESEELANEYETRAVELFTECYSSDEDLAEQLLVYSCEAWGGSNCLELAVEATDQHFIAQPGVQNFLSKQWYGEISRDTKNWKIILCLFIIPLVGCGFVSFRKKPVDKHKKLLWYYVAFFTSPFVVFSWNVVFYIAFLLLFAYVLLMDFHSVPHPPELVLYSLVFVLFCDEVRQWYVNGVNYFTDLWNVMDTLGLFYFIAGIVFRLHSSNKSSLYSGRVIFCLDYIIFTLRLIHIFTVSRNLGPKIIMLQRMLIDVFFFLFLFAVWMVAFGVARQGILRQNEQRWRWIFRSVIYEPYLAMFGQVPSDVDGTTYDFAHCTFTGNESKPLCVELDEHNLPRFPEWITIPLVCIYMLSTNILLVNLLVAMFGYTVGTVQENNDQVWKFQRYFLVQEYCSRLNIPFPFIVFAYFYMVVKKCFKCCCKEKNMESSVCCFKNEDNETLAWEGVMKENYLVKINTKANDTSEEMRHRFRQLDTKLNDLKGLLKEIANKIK
Outline: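 The read-out was luminescence reporting intracellular calcium, recorded by a CCD-based luminometer. Compounds were preincubated for 2.5 min before agonist challenge with 1 μM icilin. Human TRPM8 was expressed in a stable T-REx CHO line, induced with 0.5 μg/mL tetracycline the day before.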

Structure (SMILES)	IC50 (human TRPM8) [nM]	inhibition in vivo at 1 mg/kg [1] [%]
Cn1cc(C(=O)N[C@@H](c2ccc(OC(F)(F)F)c(F)c2)c2ncccc2F)ccc1=O [Example 103, (S)-N-((3-fluoro-4-(trifluoromethoxy)phenyl)(3-fluoropyridin-2-yl)methyl)-1-methyl-6-oxo-1,6-dihydropyridine-3-carboxamide]	7.8	97
O=C(N[C@@H](c1ccc(OC(F)(F)F)c(F)c1)c1ccccc1F)c1ccc(=O)[nH]c1 [Example 295, (S)-N-((3-fluoro-4-(trifluoromethoxy)phenyl)(2-fluorophenyl)methyl)-6-oxo-1,6-dihydropyridine-3-carboxamide]	18	77
O=C(N[C@@H](c1ccc(OC(F)(F)F)c(F)c1)c1ncccc1F)c1ccc2[nH]c(=O)oc2n1 [Example 426, (S)—N-((3-fluoro-4-(trifluoromethoxy)phenyl)(3-fluoropyridin-2-yl)methyl)-2-oxo-1,2-dihydrooxazolo[5,4-b]pyridine-5-carboxamide]	9.7	53

More lines, main results first:

IC50 (human TRPM8) [nM]	Structure (SMILES)	inhibition in vivo at 1 mg/kg [1] [%]
20.7	O=C(N[C@@H](c1ccc(OC(F)(F)F)cc1)c1ccccn1)c1ccc(=O)[nH]c1 [Example 377, (S)-6-oxo-N-(pyridin-2-yl(4-(trifluoromethoxy)phenyl)methyl)-1,6-dihydropyridine-3-carboxamide]	94
4.2	O=C(N[C@@H](c1ccc(OC(F)(F)F)cc1)c1ccccn1)c1ccc2oc(=O)[nH]c2c1 [Example 362, (S)-2-oxo-N-(pyridin-2-yl(4-(trifluoromethoxy)phenyl)methyl)-2,3-dihydrobenzo[d]oxazole-5-carboxamide]	98
